In patent publication US20120269913A1, “CRUDE CAFFEINE COMPLEX, IMPROVED FOOD PRODUCTS USING THE CRUDE CAFFEINE COMPLEX, AND METHODS OF USE THEREOF” (priority 2009, published 2012):
Like-named read-outs stand apart in the source and are kept apart here.

Experiments:
[1] = ORAC assay adapted for the linoleate microemulsion system, combination with α-tocopherol; details: in combination with α-tocopherol; 100% = additive, >100% = synergistic
Source text: Using an ORAC assay adapted for the linoleate microemulsion system (Sim, W. L. S. et al., Journal of Agricultural and Food Chemistry 57: 3409-3414 (2009)), we determined the antioxidant activity of α-tocopherol (a form of vitamin E) combined with crude caffeine, ascorbic acid, and chlorogenic acid. Data were expressed as relative ORAC: a relative ORAC of 100% means that the antioxidant activity of the mixture equaled the sum of each component's antioxidant activity (additive effect), whereas a relative ORAC greater than 100% means that the antioxidant activity of the mixture was greater than the sum of each component's antioxidant activity (synergistic effect).
In a 15-mL test tube, methyl linoleate (1.2 g), Tween-20 (2.9 g), n-butanol (1.5 g), and potassium phosphate buffer (4.4 g) were vortexed until the resulting solution was clear. […] A control well containing 200 μL of microemulsion and 40 μL of phosphate buffer was used to normalize the fluorescence reading. The reaction kinetics were monitored at 37° C. for 2 h, with readings every 2 min, by a Synergy HT microplate fluorescent reader (Biotek Instruments Inc.). The microplate reader was fitted with an excitation filter at 485 nm, an emission filter of 590 nm, and an oxygen sensor biosystem, and the plate was shaken for 20 s at low intensity before each reading to ensure sufficient mixing. […]

COX-2 enzyme = biological target: T1, COX-2 enzyme (Homo sapiens, UniProt P35354); experiment: COX-2 inhibition (oxygen consumption); type: biochemical
T1 sequence (P35354 18-604): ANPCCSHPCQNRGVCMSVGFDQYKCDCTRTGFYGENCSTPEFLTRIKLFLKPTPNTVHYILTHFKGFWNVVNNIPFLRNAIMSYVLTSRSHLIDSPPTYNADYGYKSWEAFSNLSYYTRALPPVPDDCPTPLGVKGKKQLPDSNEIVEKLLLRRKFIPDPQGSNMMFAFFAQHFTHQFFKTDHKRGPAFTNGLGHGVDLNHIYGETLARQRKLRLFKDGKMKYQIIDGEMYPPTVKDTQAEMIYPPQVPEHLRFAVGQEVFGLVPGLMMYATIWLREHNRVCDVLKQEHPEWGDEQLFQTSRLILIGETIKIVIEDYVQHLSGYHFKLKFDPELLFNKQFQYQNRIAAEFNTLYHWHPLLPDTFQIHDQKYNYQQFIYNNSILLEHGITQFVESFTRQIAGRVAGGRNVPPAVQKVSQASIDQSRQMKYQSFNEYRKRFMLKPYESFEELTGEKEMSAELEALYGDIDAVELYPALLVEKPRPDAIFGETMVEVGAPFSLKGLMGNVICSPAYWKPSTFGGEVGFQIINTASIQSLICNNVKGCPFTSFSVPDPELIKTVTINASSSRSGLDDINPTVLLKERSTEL
Method: As discussed above, the ability to inhibit the COX-2 enzyme is understood as providing anti-inflammatory activities. […] IC50 indicates the effective dose needed to achieve about 50 percent inhibition of the COX-2 enzyme.
COX-2 inhibition. Oxygen consumption was measured in the reaction chamber of an Oxytherm (Hansatech Instrumental, Norfolk, England) at 37° C. The reaction mixture consisting of 0.5 mL Tris buffer (0.1 M, pH 8.0), 5 μL heme [100 μM in dimethyl sulfoxide (DMSO)], and 10 μL of COX-2 enzyme was incubated for 1 min. Five microliters of each sample (in DMSO or ethanol) was added and the mixture was incubated for an additional 1 min. The assay was initiated by adding 5 μL arachidonic acid, and the oxygen concentration was monitored. The initial oxygen consumption rate was obtained from the kinetic curve. COX-2 inhibition was expressed as the inhibitor concentration at which the initial oxygen consumption rate decreased by 50% (IC50).

[2] = tested on: human skeletal muscle cells; experiment: Glucose uptake (3H-2-deoxyglucose) in human skeletal muscle cells; type: cell-based; details: about 0.01 mg/mL, p<0.05
Method: (§1) The effect of the crude caffeine extract of Example 1 on glucose uptake in both human adipocytes (fat) and skeletal muscle cells (SMC) was tested (Zen Bio Research, Triangle Park, N.C.).
(§2) Data were analyzed by one-way ANOVA followed by Tukey's post hoc test for multiple comparisons. In FIG. 6, results are expressed as mean±SD. The asterisk * denotes P<0.05 compared with human skeletal muscle cells; the carrot top A denotes P<0.05 compared with untreated human adipocytes.
(§3) Glucose uptake. The in vitro effects of crude caffeine on glucose uptake were assessed with human adipocytes and skeletal muscle cells (Zen-Bio, Research Triangle Park, N.C.). Briefly, primary human subcutaneous adipocytes or primary human myoblasts were differentiated in 96-well microplates. […] All samples, including the positive and negative controls, were tested in triplicate. After a 2-h incubation at 37° C. and 5% CO2, the cells were washed with PBS and lysed. The cell lysate was mixed with scintillation fluid and radioactivity of each well was measured as counts per minute (CPM).

human adipocytes = experiment: Glucose uptake (3H-2-deoxyglucose) in human adipocytes; type: cell-based; details: about 0.01 mg/mL, p<0.05
Method: as §1, §2, §3

[3] = Oxygen radical absorbance capacity, hydrophilic fraction (ORAChydro); details: crude caffeine complex of Example 1 vs pure caffeine
Method: Oxygen radical absorbance capacity. To determine antioxidant values of the hydrophilic fraction (ORAChydro), 5 g crude caffeine was extracted with 20 mL acetone/water (50:50 v/v) on an orbital shaker at room temperature for 1 h. The mixtures were centrifuged at 1972×g in a Rotanta 460R centrifuge (GMI, Ramsey, Minn.). […] The excitation wavelength was set at 485 (±20) nm and the emission wavelength set at 530 (±25) nm. To determine antioxidant values of the lipophilic fraction (ORAClipo), 5 g crude caffeine was extracted twice with 10 mL hexane/dichloromethane (50:50 v/v).

Row | Structure (SMILES) | relative ORAC [1] [%] | COX-2 inhibitory activity (in words) (COX-2 enzyme) | COX-2 inhibitory activity (in words) (COX-2 enzyme; listed as Pure caffeine) | increase in glucose uptake as compared to a control [2] | increase in glucose uptake as compared to a control (human adipocytes) | ORAChydro [3] [μmol TE/g]
1 | O=C(/C=C/c1ccc(O)c(O)c1)O[C@@H]1C[C@](O)(C(=O)O)C[C@@H](O)[C@H]1O [chlorogenic acid] | 168 | – | – | – | – | –
2 | O=C1O[C@H]([C@@H](O)CO)C(O)=C1O [ascorbic acid] | 100 | – | – | – | – | –
3 | Cn1c(=O)c2c(ncn2C)n(C)c1=O [pure caffeine, 1,3,7-trimethylxanthine] | – | no such inhibitory activity | did not inhibit COX-2 activity | no such effect | no such effect | 5
